From patent publication US11098032B2, “Pyran dervatives as CYP11A1 (cytochrome P450 monooxygenase 11A1) inhibitors” (ORION CORPORATION, priority 2016, dated 2021)
Where a name gives a salt, the structure may show the parent alone.

Biological target: T1, CYP11A1 (Homo sapiens, UniProt P05108)
T1 construct: human H295R adrenocortical carcinoma cell line was used as source of enzyme; endogenous in cells; host or cells: H295R human adrenocortical carcinoma cells
T1 sequence (P05108 40-521): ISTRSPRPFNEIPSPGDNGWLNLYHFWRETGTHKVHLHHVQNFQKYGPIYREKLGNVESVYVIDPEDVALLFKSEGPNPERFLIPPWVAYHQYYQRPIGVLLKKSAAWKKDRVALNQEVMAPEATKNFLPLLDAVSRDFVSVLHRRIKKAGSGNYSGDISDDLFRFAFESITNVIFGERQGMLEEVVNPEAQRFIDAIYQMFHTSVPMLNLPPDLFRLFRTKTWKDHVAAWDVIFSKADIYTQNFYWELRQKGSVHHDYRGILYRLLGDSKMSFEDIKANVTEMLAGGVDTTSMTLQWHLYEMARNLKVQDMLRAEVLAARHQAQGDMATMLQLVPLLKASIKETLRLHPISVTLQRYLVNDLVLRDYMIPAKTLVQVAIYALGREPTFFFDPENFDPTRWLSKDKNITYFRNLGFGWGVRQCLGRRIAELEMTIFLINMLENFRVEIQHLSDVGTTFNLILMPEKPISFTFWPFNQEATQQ
Assay: CYP11A1 inhibition: modified isocaproic acid release assay (IARA) in H295R cells
Format: cell-based
Conditions: human H295R adrenocortical carcinoma cells treated three days, 3 nM [24,25-3H]-labelled cholesterol, 1% DMSO, 10 concentrations in duplicates; read-out: IC50 of the test compounds on CYP11A1 inhibition
Method in brief: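 Cholesterol side-chain cleavage followed as tritiated isocaproic acid in charcoal-extracted medium, counted by scintillation. Substrate was 3 nM [24,25-3H]-cholesterol on human H295R cells exposed for three days to ten compound concentrations (duplicates, 1% DMSO); IC50 derived.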

SMILES | IC50 [nM]
O=c1cc(CN2Cc3ccccc3C2)occ1OCc1ccc(SC(F)(F)F)cc1 [Compound 3, 2-(Isoindolin-2-ylmethyl)-5-((4-((trifluoromethyl)thio)benzyl)oxy)-4H-pyran-4-one] | 301 to 2000
CS(=O)(=O)c1ccc(COc2coc(CN3Cc4ccc(Cl)cc4C3)cc2=O)cc1 [Compound 64, 2-((5-Chloroisoindolin-2-yl)methyl)-5-((4-(methylsulfonyl)benzyl)oxy)-4H-pyran-4-one] | 150 to 300
CC(C)(O)c1ccc(COc2coc(CN3Cc4ccccc4C3)cc2=O)cc1 [Compound 49, 5-((4-(2-Hydroxypropan-2-yl)benzyl)oxy)-2-(isoindolin-2-ylmethyl)-4H-pyran-4-one] | < 150
O=C(c1ccc(COc2coc(CN3Cc4ccccc4C3)cc2=O)cc1)N1CCCC(O)C1 (centres unmarked) [Compound 160, 5-((4-(3-Hydroxypiperidine-1-carbonyl)benzyl)oxy)-2-(isoindolin-2-ylmethyl)-4H-pyran-4-one] | 301 to 2000
CS(=O)(=O)N1CC=C(COc2coc(CN3Cc4ccccc4C3)cc2=O)CC1 [Compound 98, 2-(Isoindolin-2-ylmethyl)-5-((1-(methylsulfonyl)-1,2,3,6-tetrahydropyridin-4-yl)methoxy)-4H-pyran-4-one] | 150 to 300
CC(=O)NC(C)(C)c1ccc(COc2coc(CN3Cc4ccccc4C3)cc2=O)cc1 [Compound 69, N-(2-(4-(((6-(Isoindolin-2-ylmethyl)-4-oxo-4H-pyran-3-yl)oxy)methyl)phenyl)-propan-2-yl)acetamide] | 150 to 300
CC(C)(C)NC(=O)c1ccc(COc2coc(CN3CCc4ccccc4C3)cc2=O)cc1 [Compound 135, N-(tert-Butyl)-4-(((6-((3,4-dihydroisoquinolin-2(1H)-yl)methyl)-4-oxo-4H-pyran-3-yl)oxy)methyl)benzamide] | 150 to 300
CC(C)CS(=O)(=O)c1ccc(COc2coc(CN3Cc4ccccc4C3)cc2=O)cc1 [Compound 73, 5-((4-(Isobutylsulfonyl)benzyl)oxy)-2-(isoindolin-2-ylmethyl)-4H-pyran-4-one] | < 150
C[S+]([O-])c1ccc(COc2coc(CN3Cc4ccccc4C3)cc2=O)cc1 (centres unmarked) [Compound 81, 2-(Isoindolin-2-ylmethyl)-5-((4-(methylsulfinyl)benzyl)oxy)-4H-pyran-4-one] | 150 to 300
CNC(=O)c1ccc(COc2coc(CN3CCc4ccccc4C3)cc2=O)cc1F [Compound 80, 4-(((6-((3,4-Dihydroisoquinolin-2(1H)-yl)methyl)-4-oxo-4H-pyran-3-yl)oxy)-methyl)-2-fluoro-N-methylbenzamide] | 301 to 2000
CS(=O)(=O)c1ccc(COc2coc(CN3Cc4ccc(OC(F)(F)F)cc4C3)cc2=O)cc1 [Compound 37, 5-((4-(Methylsulfonyl)benzyl)oxy)-2-((5-(trifluoromethoxy)isoindolin-2-yl)-methyl)-4H-pyran-4-one] | < 150
CN(C)C(=O)c1ccc(COc2coc(CN3Cc4cc(F)c(F)cc4C3)cc2=O)cc1 [Compound 82a, 4-(((6-((5,6-Difluoroisoindolin-2-yl)methyl)-4-oxo-4H-pyran-3-yl)oxy)methyl)-N,N-dimethylbenzamide] | 150 to 300
COc1cc(COc2coc(CN3Cc4ccccc4C3)cc2=O)ccn1 [Compound 110, 2-(Isoindolin-2-ylmethyl)-5-((2-methoxypyridin-4-yl)methoxy)-4H-pyran-4-one] | 301 to 2000
CS(=N)c1ccc(COc2coc(CN3Cc4ccc(C(F)(F)F)cc4C3)cc2=O)cc1 (centres unmarked) [Compound 74, 5-((4-(S-methylsulfinimidoyl)benzyl)oxy)-2-((5-(trifluoromethyl)isoindolin-2-yl)methyl)-4H-pyran-4-one] | < 150
CNC(=O)c1ccc(COc2coc(CN3Cc4ccccc4C3)cc2=O)cc1F [Compound 79, 2-Fluoro-4-(((6-(isoindolin-2-ylmethyl)-4-oxo-4H-pyran-3-yl)oxy)methyl)-N-methylbenzamide] | 301 to 2000
O=c1cc(CN2Cc3ccccc3C2)occ1OCC1CCOCC1 [Compound 67, 2-(Isoindolin-2-ylmethyl)-5-((tetrahydro-2H-pyran-4-yl)methoxy)-4H-pyran-4-one] | 150 to 300
CN(CCO)S(=O)(=O)c1ccc(COc2coc(CN3Cc4ccccc4C3)cc2=O)cc1 [Compound 12, N-(2-Hydroxyethyl)-4-(((6-(isoindolin-2-ylmethyl)-4-oxo-4H-pyran-3-yl)-oxy)methyl)-N-methylbenzenesulfonamide] | < 150
O=c1cc(CN2Cc3ccccc3C2)occ1OCC1CCCCC1 [Compound 65, 5-(Cyclohexylmethoxy)-2-(isoindolin-2-ylmethyl)-4H-pyran-4-one] | < 150
CCS(=N)(=O)c1ccc(COc2coc(CN3CCc4ccccc4C3)cc2=O)cc1 (centres unmarked) [Compound 166, 2-((3,4-Dihydroisoquinolin-2(1H)-yl)methyl)-5-((4-(ethylsulfonimidoyl)-benzyl)oxy)-4H-pyran-4-one] | 301 to 2000
O=C(c1ccc(COc2coc(CN3Cc4ccccc4C3)cc2=O)cc1)N1CCC1 [Compound 129, 5-((4-(Azetidine-1-carbonyl)benzyl)oxy)-2-(isoindolin-2-ylmethyl)-4H-pyran-4-one] | < 150

The remaining lines, values ahead:

IC50 [nM] | SMILES
301 to 2000 | CC(=O)N=S1(=O)CCC(COc2coc(CN3Cc4ccccc4C3)cc2=O)CC1 (centres unmarked) [Compound 243, N-(4-(((6-(Isoindolin-2-ylmethyl)-4-oxo-4H-pyran-3-yl)oxy)methyl)-1-oxido-tetrahydro-2H-1λ^6-thiopyran-1-ylidene)acetamide]
150 to 300 | O=c1cc(CN2Cc3ccccc3C2)occ1OCC1CCN(S(=O)(=O)c2ccc(F)cc2)CC1 [Compound 256, 5-((1-((4-Fluorophenyl)sulfonyl)piperidin-4-yl)methoxy)-2-(isoindolin-2-yl-methyl)-4H-pyran-4-one]
< 150 | CC(=O)[C@H]1CC[C@H](COc2coc(CN3Cc4ccccc4C3)cc2=O)CC1 [Compound 244, 5-(((1r,4r)-4-Acetylcyclohexyl)methoxy)-2-(isoindolin-2-ylmethyl)-4H-pyran-4-one]
301 to 2000 | CS(=N)(=O)C1CCC(COc2coc(CN3Cc4ccccc4C3)cc2=O)CC1 (centres unmarked) [Compound 240, 2-(Isoindolin-2-ylmethyl)-5-((4-(S-methylsulfonimidoyl)cyclohexyl)methoxy)-4H-pyran-4-one]
301 to 2000 | CS(=O)(=O)N1CCC(COc2coc(Cn3cc4ccc(C(F)(F)F)cc4c3)cc2=O)CC1 [Compound 287, 5-((1-(Methylsulfonyl)piperidin-4-yl)methoxy)-2-((5-(trifluoromethyl)-2H-isoindol-2-yl)methyl)-4H-pyran-4-one]
301 to 2000 | O=c1cc(CN2Cc3ccccc3C2)occ1OCC1CCN(S(=O)(=O)CC(F)(F)F)CC1 [Compound 253]
150 to 300 | CSc1ccc2c(c1)CN(Cc1cc(=O)c(OCc3ccc(S(C)(=O)=O)cc3)co1)C2 [Compound 280, 5-((4-(Methylsulfonyl)benzyl)oxy)-2-((5-(methylthio)isoindolin-2-yl)methyl)-4H-pyran-4-one]
301 to 2000 | O=c1cc(CN2Cc3ccccc3C2)occ1OC[C@H]1C=C[C@@H](NS(=O)(=O)C2CC2)C1 (relative stereo) [Compound 274, Cis-N-(4-(((6-(isoindolin-2-ylmethyl)-4-oxo-4H-pyran-3-yl)oxy)methyl)cyclo-pent-2-en-1-yl)cyclopropanesulfonamide, Formate]
301 to 2000 | N=S1(=O)CCC(COc2coc(CN3Cc4ccccc4C3)cc2=O)CC1 (centres unmarked) [Compound 242, 5-((1-Imino-1-oxidohexahydro-1λ^6-thiopyran-4-yl)methoxy)-2-(isoindolin-2-ylmethyl)-4H-pyran-4-one]
301 to 2000 | CN(C)C(=O)c1ccc(COc2coc(CN3Cc4ccccc4C3)cc2=O)nc1 [Compound 170, 6-(((6-(Isoindolin-2-ylmethyl)-4-oxo-4H-pyran-3-yl)oxy)methyl)-N,N-dimethyl-nicotinamide]
150 to 300 | CCCCNC(=O)c1ccc(COc2coc(CN3Cc4ccccc4C3)cc2=O)cc1 [Compound 169, N-Butyl-4-(((6-(isoindolin-2-ylmethyl)-4-oxo-4H-pyran-3-yl)oxy)methyl)-benzamide]
150 to 300 | CCS(=N)(=O)c1ccc(COc2coc(CN3Cc4ccc([N+](=O)[O-])cc4C3)cc2=O)cc1 (centres unmarked) [Compound 168, 5-((4-(Ethylsulfonimidoyl)benzyl)oxy)-2-((5-nitroisoindolin-2-yl)methyl)-4H-pyran-4-one]
301 to 2000 | CC(=O)N1CCC(CCOc2coc(CN3Cc4ccccc4C3)cc2=O)CC1 [Compound 206, 5-(2-(1-Acetylpiperidin-4-yl)ethoxy)-2-(isoindolin-2-ylmethyl)-4H-pyran-4-one]
301 to 2000 | CS(=O)(=O)N1CC[C@@H](COc2coc(CN3Cc4ccccc4C3)cc2=O)C1 [Compound 277, (R)-2-(Isoindolin-2-ylmethyl)-5-((1-(methylsulfonyl)pyrrolidin-3-yl)methoxy)-4H-pyran-4-one]
150 to 300 | CS(=O)(=O)N1C=CC(COc2coc(CN3Cc4ccc(C(F)(F)F)cc4C3)cc2=O)CC1 (centres unmarked) [Compound 291, 5-((1-(Methylsulfonyl)-1,2,3,4-tetrahydropyridin-4-yl)methoxy)-2-((5-(trifluoro-methyl)isoindolin-2-yl)methyl)-4H-pyran-4-one]
